System: HEK293FT cells
Test: pEGFP-N3 polyplex transfection of HEK293FT cells, live cell imaging
Assay type: cell-based
Description: Spectrophotometry: Concentrations were determined using either a Thermo Nanodrop 2000 spectrometer or Perkin Elmer Lambda 365 Spectrophotometer. DLS measurements: DLS measurements were performed on a Malvern Nano ZS (Malvern Instruments, U.K.), operating at 633 nm with a 173° scattering angle, at 25 or 37° C. DLS mean diameters were obtained from the intensity particle size distribution provided by Malvern Zetasizer Software. DLS histograms were obtained from the intensity particle size distributions. Zeta-potential: The zeta-potential values of the polyplexes were obtained by laser doppler anemometry (LDA), measuring the mean electrophoretic mobility (Malvern Zetasizer Nano ZS, Malvern Instruments, U.K.). Measurements were performed in 10 mM HEPES pH 7.1, 150 mM NaCl. TEM measurements: TEM measurements were performed on a JEOL JEM-1011 operated at 100 kV electron microscope, equipped with a camera S5 MegaView G2. A drop of a solution of polyplexes (0.1 mg/mL) was settled on a PELCO® TEM carbon type-B film copper grid and allowed to dry at room temperature for 1 h. Infrared Spectroscopy: FT-IR spectra were recorded on a Bruker Vertex 70v, equipped with a RockSolid interferometer, after preparing the samples (1-2 mg) as KBr pellets. Spectra were processed using OPUS 7.8 software (Bruker). NMR Spectroscopy: 1H NMR spectra were recorded on a 11.7 T Bruker DRX-500 spectrometer. Chemical shifts are reported in ppm (o units) downfield from the HOD residual solvent peak (CD3OD). Experiments were recorded acquiring 64-512 scans, with a pre-scan delay (d1) of 12 s, and an acquisition time (aq) of 4 s at 300 K. 13C NMR spectrum was recorder on a 9.39 T Varian Innova 400 spectrometer. MestReNova 14.2 software (Mestrelab Research) was used for spectra processing. Cell culture conditions and treatments: HEK293FT, A431, A2058, Neuro2A, Hepa1-6 and MDA-MB 468 were maintained in 10% FBS-supplemented DMEM medium (PAN-Biotech GmbH, or Lonza Group, Basel, Switzerland)+Pen/Strep at 37° C. with 5% CO2. […]

CC(=O)OC1C(C)OC(OC2C(C)OC(OC(=O)[C@]34CCC(C)(C)CC3C3=CCC5[C@@]6(C)CC[C@H](OC7OC(C(=O)O)C(O)C(OC8OCC(O)C(O)C8O)C7OC7OC(CO)C(O)C(O)C7O)[C@@](C)(/C=N/NC(=O)CCCCCN7C(=O)C=CC7=O)C6CC[C@@]5(C)[C@]3(C)C[C@H]4O)C(OC3OC(C)C(OC4OCC(O)C(OC5OC(CO)C(O)C(O)C5O)C4O)C(O)C3O)C2O)C(O)C1OC1OCC(O)C(O)C1O (stereo partly drawn) [SO1861-EMCH]
pEGFP-N3 transfection (GFP expression) (40 pM or 120 pM pEGFP-N3, N/P 8, SO1861-EMCH = 4000 nM co-administered with PAMAM G5-(PEG N3)3.5 polyplexes): nearly all cells were transfected
toxicity (cell confluency) (40 pM or 120 pM pEGFP-N3 polyplexes, N/P 8, SO1861-EMCH = 4000 nM co-administered with PAMAM G5-(PEG N3)3.5 polyplexes): strong toxicity was observed
toxicity of SO1861-EMCH alone (4000 nM, without polyplex (data not shown)): not toxic

— patent US20260077055A1, “COMPOSITIONS OF POLYPLEXES AND SAPONINS” (SAPREME TECHNOLOGIES B.V., priority 2022, published 2026)
